Data published in patent publication US20100029546A1, “preparation method of galactosyl-has magnetic nanoparticles containing adriamycin” (priority 2004, published 2010).

What was measured:
HepG2 cell = test: Transwell invasion in vitro; format: cell-based
Source text: The tumor cell's mobility and the invasion are close to each other. The tumor cell has the ability of amoeba type's movement, and it was confirmed by many people. Simultaneously, many overseas scholars reported that there is a direct ratio relation between the mobility and the invasion ability of the cancer cell. […] There is significant difference between any two groups. […] HSA-magnetic-adriamycin-nanoparticles group is different from galactosyl-HSA-adriamycin-nanoparticles group in it.

liver cancer = test: Animal test of liver cancer therapy, hepatic artery injection; format: in vivo
Source text: The result could be found in animal test: the group having NS hepatic artery injection lived 12.7 days on average; the group having lib-adriamycin hepatic artery injection lived 18.7 days on average; HSA-NP hepatic artery injection lived 20.7 days on average; the group having Gal-HAS-NP treatment lived 39.4 days on average.
Meanwhile, the aspiration of magnetic nanoparicles produced a longer functional diameter, which caused embolism in tumor blood vessels and lack of blood and oxygen in tumor in order to improve the sensitivity and effect of chemotherapeutics. Without adding magnetic field, the distribution rate of ADM-GHMN in tumorous and normal livers was 2.74, which also had some anti-tumor effects.

[1] = Drug release in vitro, dynamic dialysis; format: physicochemical; settings: for Releasing (%): physiological saline
Procedure: Drug releases in vitro. According to dynamic dialysis, taking physiological saline as medium, 4 ml of the solution would be taken at certain time, and the same volume of the medium would be added in. The absorbency was measured to get the solving efficiency according to the standard curve formula. At the same time, the drug releasing experiment of adriamycin standard substance was done in order to observe the control release of the dialysis bag.

[2] = rabbit
hepatocelular cell = test: Apoptosis, quadrilateral zone in drug toxicity experiment; format: cell-based

COc1cccc2c1C(=O)c1c(O)c3c(c(O)c1C2=O)C[C@@](O)(C(=O)CO)C[C@@H]3O[C@H]1C[C@H](N)[C@H](O)[C@H](C)O1 [adriamycin]
inhibition of invasive power (HepG2 cell): can inhibit invasive power of the HepG2 cell
average survival (liver cancer; hepatic artery injection): 18.7 days
tumor necrosis extent in pathological section (liver cancer; in vivo): no badly necrosis but most light or medium leveled necrosis
Releasing (%) ([1]; 0.5 h): 78.21%
Releasing (%) ([1]; 1 h): 91.34%
Releasing (%) ([1]; 2 h): 100%
release / releasing efficiency ([1]; time not stated (Tab 6)): 91.34%
C l [2]: 0.4233 ± 0.3223 mg/m/(mg/l)
T1/2β ([2]; elimination phase): 883.2164 ± 2198.4914 m
A ([2]; in vivo): 0.1362 ± 0.0185 mg · l − 1
AUC0→∞ ([2]; in vivo): 14.8163 ± 24.789 m · mg/l
B ([2]; in vivo): 0.0109 ± 0.0028 mg · l − 1
Gamma ([2]; in vivo): 0.5463 ± 0.1663 m − 1
T1/2α ([2]; in vivo): 13.8169 ± 3.5845 m
V c ([2]; in vivo): 18.6816 ± 2.3663 (mg)/(mg/l)
α ([2]; in vivo): 0.0523 ± 0.0161 m − 1
characteristic quadrilateral zone present (hepatocelular cell): characteristic quadrilateral zone
